Results from patent US20130079370A1, “Method for the Inhibition of Deubiquitinating Activity” (priority 2011, published 2013).

Columns and labels:
[1] = tested on: orthotopic breast carcinomas (4T1); assay: Orthotopic breast carcinoma (4T1) model; format: in vivo, BALB/c mice; conditions: 2.5 mg/kg i.p., 1 day on/3 days off
MCF7 cells = assay: Microarray based gene expression analysis, chaperone genes; format: cell-based; parameters: key to Expression value HSPA4L / Expression value DNAJB1 / Expression value HSPD1 / Expression value DNAJB4 / Expression value HSPA1B / Expression value HSPH1 / Expression value HSPA4 / Expression value DNAJB9 / Expression value DNAJA1 / Expression value HSPA1A / Expression value HSPA6 / Expression value DNAJA4: MAS5-normalized array expression, arbitrary units
Experimental: The microarray based gene expression analysis and the Connectivity Map (CMAP) analysis was performed as previously described (40). Briefly, MCF7 cells were exposed to b-AP15 (1 μM, 6 h) or vehicle (0.1% DMSO, 6 h). RNA was isolated (RNeasy miniprep kit, Qiagen) followed by quality control, labelling and hybridization to Genome U133 Plus 2.0 arrays (Affymetrix Inc). Raw data was normalized using MasS (Affymetrix Inc.) and rank ordered. For selection of the 30 most induced (up tags) and the 30 most suppressed (down tags) transcripts the following criteria were used: Up tags, present call and expression over 300 arbitrary in the b-AP15 experiment; Down tags, present call after both b-AP15 and vehicle treatment, and expression over 300 arbitrary units in the vehicle experiment. For CMAP compatibility only tags (i.e. probes) present on HG U133A were used. Raw and normalized expression data have been deposited at Gene Expression Omnibus (http://www.ncbi.nlm. nih.gov/geo/) with accession number GSE24150.
Expression of chaperone genes observed in bAP15-treated cells (Table 1) is indicative of induction of a proteotoxic response.

HCT-116 cells = assay: DNA damage markers, immunoblot; format: cell-based; conditions: cell cycle arrest observed
Experimental: Treatment with b-AP15 increased their levels in a dose dependent manner without altering the levels of ornithine decarboxylase 1 (ODC1), an ubiquitin-independent proteasome substrate (8).
HCT-116 cells were treated with b-AP15 or doxorubicin (100 nM, as a positive control for genotoxic stress for 18 h) (FIG. 5). Cell lysates were immuno-blotted with antibodies for phosphorylated p53 and histone H2 Ax marker for DNA damage of for total levels of p53 and β-actin as loading controls.

Compound: C=CC(=O)N1C/C(=C\c2ccc([N+](=O)[O-])cc2)C(=O)/C(=C/c2ccc([N+](=O)[O-])cc2)C1 [b-AP15, (3E,5E)-3,5-bis[(4-nitrophenyl)methylidene]-1-(prop-2-enoyl)piperidin-4-one]
- difference in weight at the start and the endpoint between control and treated animals [1]: +5.8%
- Expression value HSPA6 (MCF7 cells; probe set 117_at, MCF7 cells, 1 μM, 6 h): 24149
- Expression value DNAJB1 (MCF7 cells; probe set 200666_s_at, MCF7 cells, 1 μM, 6 h): 33900
- Fold change DNAJB1 (MCF7 cells; probe set 200666_s_at, b-AP15 vs vehicle): 6
- Expression value HSPA1A (MCF7 cells; probe set 200800_s_at, MCF7 cells, 1 μM, 6 h): 57478
- Fold change HSPA1A (MCF7 cells; probe set 200800_s_at, b-AP15 vs vehicle): 4
- Expression value DNAJA1 (MCF7 cells; probe set 200880_at, MCF7 cells, 1 μM, 6 h): 19970
- Fold change DNAJA1 (MCF7 cells; probe set 200880_at, b-AP15 vs vehicle): 4
- Expression value HSPA1B (MCF7 cells; probe set 202581_at, MCF7 cells, 1 μM, 6 h): 31068
- Fold change HSPA1B (MCF7 cells; probe set 202581_at, b-AP15 vs vehicle): 5
- Expression value DNAJB9 (MCF7 cells; probe set 202843_at, MCF7 cells, 1 μM, 6 h): 1879
- Fold change DNAJB9 (MCF7 cells; probe set 202843_at, b-AP15 vs vehicle): 4
- Expression value DNAJB4 (MCF7 cells; probe set 203810_at, MCF7 cells, 1 μM, 6 h): 1955
- Expression value DNAJB4 (MCF7 cells; probe set 203811_s_at, MCF7 cells, 1 μM, 6 h): 960
- Fold change DNAJB4 (MCF7 cells; probe set 203811_s_at, b-AP15 vs vehicle): 5
- Expression value HSPA4L (MCF7 cells; probe set 205543_at, MCF7 cells, 1 μM, 6 h): 5452
- Expression value HSPH1 (MCF7 cells; probe set 206976_s_at, MCF7 cells, 1 μM, 6 h): 40974
- Fold change HSPH1 (MCF7 cells; probe set 206976_s_at, b-AP15 vs vehicle): 5
- Expression value HSPA4 (MCF7 cells; probe set 211016_x_at, MCF7 cells, 1 μM, 6 h): 1803
- Fold change HSPA4 (MCF7 cells; probe set 211016_x_at, b-AP15 vs vehicle): 4
- Expression value DNAJA4 (MCF7 cells; probe set 225061_at, MCF7 cells, 1 μM, 6 h): 21103
- Fold change DNAJA4 (MCF7 cells; probe set 225061_at, b-AP15 vs vehicle): 30
- Expression value HSPD1 (MCF7 cells; probe set 241716_at, MCF7 cells, 1 μM, 6 h): 487
- Fold change HSPD1 (MCF7 cells; probe set 241716_at, b-AP15 vs vehicle): 6
- DNA damage markers phosphorylated p53 (Ser 15), H2AX (Ser 139) (HCT-116 cells): not associated with increased levels of DNA damage markers
